From patent EP4722207A1, “OXOISOINDOLINYL-SUBSTITUTED TETRAHYDROPYRIMIDINEDIONE DERIVATIVE AND USE THEREOF” (Gluetacs Therapeutics (Shanghai) Co., Ltd., priority 2023, dated 2024)

Assays:
H292 = test: Cell viability assay (CellTiter-Meiluncell Luminescent), tumor cell proliferation, H292; conditions: Homo sapiens, NCI-H292, 96 h; for inhibition at 0.01 µM: read-out: Inhibition Rate at 10 nM (%); for inhibition at 0.5 µM: read-out: Inhibition Rate at 500 nM (%)
MV-4-11 = test: Cell viability assay (CellTiter-Meiluncell Luminescent), tumor cell proliferation, MV-4-11; conditions: Homo sapiens, MV4-11, 96 h; for inhibition at 0.01 µM: read-out: Inhibition Rate at 10 nM (%); for inhibition at 0.5 µM: read-out: Inhibition Rate at 500 nM (%)
MDA-MB-231 = test: Cell viability assay (CellTiter-Meiluncell Luminescent), tumor cell proliferation, MDA-MB-231; conditions: Homo sapiens, MDA-MB-231, 96 h; for inhibition at 0.01 µM: read-out: Inhibition Rate at 10 nM (%); for inhibition at 0.5 µM: read-out: Inhibition Rate at 500 nM (%)
Description: The tumor cells used herein were cultured in a cell culture medium listed in table 2 at 37°C in an incubator with 5% CO2. Prior to experimentation, all cell lines used were correctly identified by STR profiling, and tested negative for mycoplasma contamination using a mycoplasma detection kit through routine screenings.
On the following day, the test compounds of the present disclosure were subjected to serial dilution. […] Subsequently, 0.5 µL of the test compound dilution was transferred into the 96-well plate containing the cells, with each well containing 100 µL of cell culture medium. […] Into the 96-well plate, the diluted test compounds and corresponding detection reagents were added, resulting in final test compound concentrations of 500 nM and 10 nM, respectively. The experimental procedure is described below using the diluted 2 µM test compound as an example.
After the cells were treated with the compounds of the present disclosure for a specified period, the cell viability assay reagent was added to the culture medium according to the kit's instructions to determine cell viability. […] All controls were treated using the same procedure as the compounds of the present disclosure. The growth inhibition curves for the compounds of the present disclosure were plotted using Prism GraphPad software, and the IC50 values were calculated therefrom.

IKZF1 = biological target: T1, IKZF1 (Homo sapiens, UniProt Q13422+Q96SW2); test: Western-blot assay, substrate protein degradation in hPBMCs: IKZF1; assay type: cell-based; conditions: 24 hours of compound treatment, 50 nM and 500 nM
T1 construct: effects of the compounds of the present disclosure on the expression of target proteins in cells; endogenous in cells; host or cells: human PBMCs (hPBMCs)
T1 sequence (Q13422 whole entry): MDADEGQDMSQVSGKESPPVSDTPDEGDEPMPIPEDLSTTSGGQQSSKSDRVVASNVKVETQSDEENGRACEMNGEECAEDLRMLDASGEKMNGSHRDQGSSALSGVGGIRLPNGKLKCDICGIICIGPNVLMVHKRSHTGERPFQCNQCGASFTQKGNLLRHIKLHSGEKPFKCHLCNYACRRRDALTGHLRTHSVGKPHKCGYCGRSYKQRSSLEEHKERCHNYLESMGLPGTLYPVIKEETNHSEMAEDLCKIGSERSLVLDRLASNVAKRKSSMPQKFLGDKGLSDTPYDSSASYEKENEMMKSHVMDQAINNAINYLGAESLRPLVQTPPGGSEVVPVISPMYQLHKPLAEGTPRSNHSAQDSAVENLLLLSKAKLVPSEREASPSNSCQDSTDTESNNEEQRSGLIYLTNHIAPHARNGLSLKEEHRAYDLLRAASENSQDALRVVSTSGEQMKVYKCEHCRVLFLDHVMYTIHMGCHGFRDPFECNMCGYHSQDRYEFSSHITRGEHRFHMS
T1 sequence (Q96SW2 whole entry): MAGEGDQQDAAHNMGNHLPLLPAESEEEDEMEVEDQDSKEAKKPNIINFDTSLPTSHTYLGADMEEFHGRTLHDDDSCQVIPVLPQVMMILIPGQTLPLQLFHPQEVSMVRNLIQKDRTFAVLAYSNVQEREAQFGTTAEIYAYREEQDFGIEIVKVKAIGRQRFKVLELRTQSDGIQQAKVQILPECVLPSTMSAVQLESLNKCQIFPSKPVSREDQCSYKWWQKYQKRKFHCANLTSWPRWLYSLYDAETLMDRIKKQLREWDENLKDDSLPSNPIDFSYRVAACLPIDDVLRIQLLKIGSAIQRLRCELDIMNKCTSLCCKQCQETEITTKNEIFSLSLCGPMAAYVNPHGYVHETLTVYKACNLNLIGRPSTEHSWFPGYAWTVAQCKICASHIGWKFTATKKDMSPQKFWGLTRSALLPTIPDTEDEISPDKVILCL
T1 sequence (Q16531 whole entry partner): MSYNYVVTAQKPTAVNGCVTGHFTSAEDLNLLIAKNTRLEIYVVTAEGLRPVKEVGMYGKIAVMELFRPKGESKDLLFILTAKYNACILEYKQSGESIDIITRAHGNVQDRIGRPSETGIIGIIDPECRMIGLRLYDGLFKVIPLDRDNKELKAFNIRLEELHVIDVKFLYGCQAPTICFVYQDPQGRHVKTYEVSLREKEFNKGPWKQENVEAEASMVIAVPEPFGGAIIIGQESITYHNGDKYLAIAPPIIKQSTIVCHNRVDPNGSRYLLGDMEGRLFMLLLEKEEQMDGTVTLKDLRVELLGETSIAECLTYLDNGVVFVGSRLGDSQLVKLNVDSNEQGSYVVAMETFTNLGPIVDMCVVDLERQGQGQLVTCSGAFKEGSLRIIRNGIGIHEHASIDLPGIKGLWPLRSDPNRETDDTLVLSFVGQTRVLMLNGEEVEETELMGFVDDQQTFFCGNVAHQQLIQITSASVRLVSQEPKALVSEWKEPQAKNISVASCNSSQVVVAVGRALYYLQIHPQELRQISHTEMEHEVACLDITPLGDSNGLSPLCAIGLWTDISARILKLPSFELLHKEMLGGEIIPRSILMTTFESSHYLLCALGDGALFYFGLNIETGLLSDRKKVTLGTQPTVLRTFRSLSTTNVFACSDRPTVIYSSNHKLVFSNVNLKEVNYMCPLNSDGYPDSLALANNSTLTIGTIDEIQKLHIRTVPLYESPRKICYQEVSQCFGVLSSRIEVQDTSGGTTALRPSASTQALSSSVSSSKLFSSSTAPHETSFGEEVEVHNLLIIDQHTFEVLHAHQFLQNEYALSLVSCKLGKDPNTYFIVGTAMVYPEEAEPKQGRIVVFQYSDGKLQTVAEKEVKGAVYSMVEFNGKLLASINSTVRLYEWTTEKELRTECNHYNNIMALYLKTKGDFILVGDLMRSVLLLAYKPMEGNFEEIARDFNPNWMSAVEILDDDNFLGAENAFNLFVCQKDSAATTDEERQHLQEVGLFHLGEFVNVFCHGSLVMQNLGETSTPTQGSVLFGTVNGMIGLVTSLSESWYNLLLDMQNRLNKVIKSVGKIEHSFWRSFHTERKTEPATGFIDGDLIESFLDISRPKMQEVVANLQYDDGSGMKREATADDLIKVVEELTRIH

WEE1 = biological target: T2, WEE1 (Homo sapiens, UniProt P30291+Q96SW2); test: Western-blot assay, substrate protein degradation in hPBMCs: WEE1; assay type: cell-based; conditions: 24 hours of compound treatment, 50 nM and 500 nM
T2 construct: effects of the compounds of the present disclosure on the expression of target proteins in cells; endogenous in cells; host or cells: human PBMCs (hPBMCs)
T2 sequence (P30291 whole entry): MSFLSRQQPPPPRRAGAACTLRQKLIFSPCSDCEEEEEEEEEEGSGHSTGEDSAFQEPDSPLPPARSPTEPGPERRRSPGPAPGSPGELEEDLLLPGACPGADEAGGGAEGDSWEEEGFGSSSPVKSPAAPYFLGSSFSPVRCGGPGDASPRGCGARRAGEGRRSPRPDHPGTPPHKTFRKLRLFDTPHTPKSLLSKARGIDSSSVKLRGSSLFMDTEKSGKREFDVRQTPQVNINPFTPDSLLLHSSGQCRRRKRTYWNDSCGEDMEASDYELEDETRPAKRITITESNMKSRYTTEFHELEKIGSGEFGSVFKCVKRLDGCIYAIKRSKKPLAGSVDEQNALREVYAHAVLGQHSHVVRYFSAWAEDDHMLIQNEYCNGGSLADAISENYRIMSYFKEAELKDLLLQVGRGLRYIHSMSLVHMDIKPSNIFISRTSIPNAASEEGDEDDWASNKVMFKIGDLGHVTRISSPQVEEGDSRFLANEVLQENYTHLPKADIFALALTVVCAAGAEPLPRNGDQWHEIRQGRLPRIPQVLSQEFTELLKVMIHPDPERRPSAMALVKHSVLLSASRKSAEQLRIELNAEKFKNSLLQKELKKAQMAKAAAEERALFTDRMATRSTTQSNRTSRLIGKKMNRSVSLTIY
T2 sequence (Q96SW2 whole entry): as the sequence (Q96SW2 whole entry) above
T2 sequence (Q16531 whole entry partner): as the sequence (Q16531 whole entry partner) above

GSPT1 = biological target: T3, GSPT1 (Homo sapiens, UniProt P15170+Q96SW2); test: Western-blot assay, substrate protein degradation in hPBMCs: GSPT1; assay type: cell-based; conditions: 24 hours of compound treatment, 50 nM and 500 nM
T3 construct: effects of the compounds of the present disclosure on the expression of target proteins in cells; endogenous in cells; host or cells: human PBMCs (hPBMCs)
T3 sequence (P15170 whole entry): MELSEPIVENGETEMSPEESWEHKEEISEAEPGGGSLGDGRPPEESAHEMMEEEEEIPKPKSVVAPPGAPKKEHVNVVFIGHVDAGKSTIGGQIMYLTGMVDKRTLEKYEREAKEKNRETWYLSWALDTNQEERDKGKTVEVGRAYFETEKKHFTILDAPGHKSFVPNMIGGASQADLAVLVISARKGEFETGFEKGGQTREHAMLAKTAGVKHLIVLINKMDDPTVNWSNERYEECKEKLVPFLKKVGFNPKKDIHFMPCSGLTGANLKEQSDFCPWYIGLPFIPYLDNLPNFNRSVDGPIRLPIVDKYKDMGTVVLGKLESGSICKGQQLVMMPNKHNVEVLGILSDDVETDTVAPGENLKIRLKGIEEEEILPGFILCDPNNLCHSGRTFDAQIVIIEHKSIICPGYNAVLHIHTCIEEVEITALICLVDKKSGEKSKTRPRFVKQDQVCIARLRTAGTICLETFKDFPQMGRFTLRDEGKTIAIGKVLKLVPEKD
T3 sequence (Q96SW2 whole entry): as the sequence (Q96SW2 whole entry) above
T3 sequence (Q16531 whole entry partner): as the sequence (Q16531 whole entry partner) above

CK1α = biological target: T4, CK1α (Homo sapiens, UniProt P48729+Q96SW2); test: Western-blot assay, substrate protein degradation in hPBMCs: CK1α; assay type: cell-based; conditions: 24 hours of compound treatment, 50 nM and 500 nM
T4 construct: effects of the compounds of the present disclosure on the expression of target proteins in cells; endogenous in cells; host or cells: human PBMCs (hPBMCs)
T4 sequence (P48729 whole entry): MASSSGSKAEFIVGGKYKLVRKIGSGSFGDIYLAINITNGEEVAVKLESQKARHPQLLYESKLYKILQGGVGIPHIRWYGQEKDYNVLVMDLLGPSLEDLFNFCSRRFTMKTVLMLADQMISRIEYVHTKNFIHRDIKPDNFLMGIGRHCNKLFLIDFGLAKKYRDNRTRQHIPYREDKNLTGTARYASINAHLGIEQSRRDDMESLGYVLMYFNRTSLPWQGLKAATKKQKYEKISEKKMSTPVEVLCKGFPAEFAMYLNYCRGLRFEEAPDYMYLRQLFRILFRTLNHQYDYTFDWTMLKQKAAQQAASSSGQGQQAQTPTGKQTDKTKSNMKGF
T4 sequence (Q96SW2 whole entry): as the sequence (Q96SW2 whole entry) above
T4 sequence (Q16531 whole entry partner): as the sequence (Q16531 whole entry partner) above

IKZF3 = biological target: T5, IKZF3 (Homo sapiens, UniProt Q96SW2+Q9UKT9); test: Western-blot assay, substrate protein degradation in hPBMCs: IKZF3; assay type: cell-based; conditions: 24 hours of compound treatment, 50 nM and 500 nM
T5 construct: effects of the compounds of the present disclosure on the expression of target proteins in cells; endogenous in cells; host or cells: human PBMCs (hPBMCs)
T5 sequence (Q9UKT9 whole entry): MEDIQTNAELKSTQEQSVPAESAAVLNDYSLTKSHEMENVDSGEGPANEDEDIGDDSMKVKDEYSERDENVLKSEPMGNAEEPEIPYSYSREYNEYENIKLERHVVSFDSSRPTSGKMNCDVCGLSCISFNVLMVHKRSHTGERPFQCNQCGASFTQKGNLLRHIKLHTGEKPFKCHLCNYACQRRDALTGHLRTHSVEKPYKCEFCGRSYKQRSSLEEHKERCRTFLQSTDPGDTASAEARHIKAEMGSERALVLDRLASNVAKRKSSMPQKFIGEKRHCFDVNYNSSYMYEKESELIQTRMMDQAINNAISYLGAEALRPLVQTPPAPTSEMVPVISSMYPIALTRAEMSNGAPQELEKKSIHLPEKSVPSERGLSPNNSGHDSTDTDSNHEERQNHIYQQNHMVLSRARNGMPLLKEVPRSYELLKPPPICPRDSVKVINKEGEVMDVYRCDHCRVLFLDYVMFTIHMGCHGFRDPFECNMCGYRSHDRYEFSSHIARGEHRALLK
T5 sequence (Q96SW2 whole entry): as the sequence (Q96SW2 whole entry) above
T5 sequence (Q16531 whole entry partner): as the sequence (Q16531 whole entry partner) above

IKZF2 = biological target: T6, IKZF2 (Homo sapiens, UniProt Q96SW2+Q9UKS7); test: Western-blot assay, substrate protein degradation in hPBMCs: IKZF2; assay type: cell-based; conditions: 24 hours of compound treatment, 50 nM and 500 nM
T6 construct: effects of the compounds of the present disclosure on the expression of target proteins in cells; endogenous in cells; host or cells: human PBMCs (hPBMCs)

Compound	inhibition at 0.01 µM (H292) [%]	inhibition at 0.5 µM (H292) [%]	inhibition at 0.01 µM (MV-4-11) [%]	inhibition at 0.5 µM (MV-4-11) [%]	inhibition at 0.01 µM (MDA-MB-231) [%]	inhibition at 0.5 µM (MDA-MB-231) [%]	substrate protein remaining % IKZF1 (IKZF1)	substrate protein remaining % WEE1 (WEE1)	substrate protein remaining % GSPT1 (GSPT1)	substrate protein remaining % CK1α (CK1α)	substrate protein remaining % IKZF3 (IKZF3)	substrate protein remaining % IKZF2 (IKZF2)
O=C1CCN(N2Cc3cc(CNC45CC6CC(CC(C6)C4)C5)ccc3C2=O)C(=O)N1 [GT-07806, 1-(5-((((3s,5s,7s)-adamantan-1-yl)amino)methyl)-1-oxoisoindolin-2-yl)dihydropyrimidine-2,4(1H,3H)-dione]	15 to 20	15 to 20	5 to 10	25 to 30	18 to 25	18 to 25						
O=C1CCN(N2C(=O)c3ccc(CN4CC(=C5CCOc6cc(F)ccc65)C4)cc3C2=O)C(=O)N1 [GT-07888, 2-(2,4-dioxotetrahydropyrimidin-1(2H)-yl)-5-((3-(7-fluorochroman-4-ylidene)azetidin-1-yl)methyl)isoindoline-1,3-dione]	5 to 10	10 to 15	40 to 60	40 to 60	18 to 25	18 to 25						
CC1(C)[C@@H]2CC[C@]1(CS(=O)(=O)NCc1ccc3c(c1)C(=O)N(N1CCC(=O)NC1=O)C3=O)C(=O)C2 [GT-07998, 1-((1R,4R)-7,7-dimethyl-2-oxobicyclo[2.2.1]heptan-1-yl)-N-((2-(2,4-dioxotetrahydropyrimidin-1(2H)-yl)-1,3-dioxoisoindolin-5-yl)methyl)methanesulfonamide]	15 to 20	1 to 5			25 to 40	10 to 15						
Cc1csc2ncnc(N3CCN(Cc4ccc5c(c4)CN(N4CCC(=O)NC4=O)C5=O)CC3)c12 [GT-08058, 1-(5-((4-(5-methylthieno[2,3-d]pyrimidin-4-yl)piperazin-1-yl)methyl)-1-oxoisoindolin-2-yl)dihydropyrimidine-2,4(1H,3H)-dione]					25 to 40	15 to 18	A (0% ≤ substrate protein remaining % ≤ 80%)	B (80%< substrate protein remaining %≤ 100%)	B (80%< substrate protein remaining %≤ 100%)	B (80%< substrate protein remaining %≤ 100%)	B (80%< substrate protein remaining %≤ 100%)	B (80%< substrate protein remaining %≤ 100%)
O=C1CCN(N2Cc3cc(CN4CCN(c5ncnc6sc(Br)cc56)CC4)ccc3C2=O)C(=O)N1 [GT-08063, 1-(5-((4-(6-bromothieno[2,3-d]pyrimidin-4-yl)piperazin-1-yl)methyl)-1-oxoisoindolin-2-yl)dihydropyrimidine-2,4(1H,3H)-dione]	20 to 40	20 to 40	18 to 25	5 to 10	15 to 18	15 to 18	B (80%< substrate protein remaining %≤ 100%)	B (80%< substrate protein remaining %≤ 100%)	B (80%< substrate protein remaining %≤ 100%)	B (80%< substrate protein remaining %≤ 100%)	A (0% ≤ substrate protein remaining % ≤ 80%)	A (0% ≤ substrate protein remaining % ≤ 80%)
O=C1CCN(N2Cc3cc(CN4CCN(c5ncc6ccsc6n5)CC4)ccc3C2=O)C(=O)N1 [GT-08081, 1-(1-oxo-5-((4-(thieno[2,3-d]pyrimidin-2-yl)piperazin-1-yl)methyl)isoindolin-2-yl)dihydropyrimidine-2,4(1H,3H)-dione]			18 to 25	25 to 30	18 to 25	5 to 10	B (80%< substrate protein remaining %≤ 100%)	A (0% ≤ substrate protein remaining % ≤ 80%)	A (0% ≤ substrate protein remaining % ≤ 80%)	A (0% ≤ substrate protein remaining % ≤ 80%)	B (80%< substrate protein remaining %≤ 100%)	B (80%< substrate protein remaining %≤ 100%)
O=C1CCN(N2C(=O)c3ccc(CN4CCC(c5ncnc6sc(-c7ccccc7)cc56)CC4)cc3C2=O)C(=O)N1 [GT-08108, 2-(2,4-dioxotetrahydropyrimidin-1(2H)-yl)-5-((4-(6-phenylthieno[2,3-d]pyrimidin-4-yl)piperidin-1-yl)methyl)isoindoline-1,3-dione]	20 to 40	15 to 20			25 to 40	18 to 25	A (0% ≤ substrate protein remaining % ≤ 80%)	A (0% ≤ substrate protein remaining % ≤ 80%)	A (0% ≤ substrate protein remaining % ≤ 80%)	A (0% ≤ substrate protein remaining % ≤ 80%)	A (0% ≤ substrate protein remaining % ≤ 80%)	A (0% ≤ substrate protein remaining % ≤ 80%)
O=C1CCN(N2C(=O)c3ccc(CN4CCC(c5ncnc6scc(-c7ccccc7)c56)CC4)cc3C2=O)C(=O)N1 [GT-08109, 2-(2,4-dioxotetrahydropyrimidin-1(2H)-yl)-5-((4-(5-phenylthieno[2,3-d]pyrimidin-4-yl)piperidin-1-yl)methyl)isoindoline-1,3-dione]	15 to 20	1 to 5			18 to 25	5 to 10	A (0% ≤ substrate protein remaining % ≤ 80%)	A (0% ≤ substrate protein remaining % ≤ 80%)	A (0% ≤ substrate protein remaining % ≤ 80%)	A (0% ≤ substrate protein remaining % ≤ 80%)	A (0% ≤ substrate protein remaining % ≤ 80%)	A (0% ≤ substrate protein remaining % ≤ 80%)
Cc1nc(C2CCN(Cc3ccc4c(c3)CN(N3CCC(=O)NC3=O)C4=O)CC2)c2c3c(sc2n1)CCC3 [GT-08114, 1-(5-((4-(2-methyl-6,7-dihydro-5H-cyclopenta[4,5]thieno[2,3-d]pyrimidin-4-yl)piperidin-1-yl)methyl)-1-oxoisoindolin-2-yl)dihydropyrimidine-2,4(1H,3H)-dione]	20 to 40	10 to 15			18 to 25	18 to 25	B (80%< substrate protein remaining %≤ 100%)	B (80%< substrate protein remaining %≤ 100%)	A (0% ≤ substrate protein remaining % ≤ 80%)	B (80%< substrate protein remaining %≤ 100%)	B (80%< substrate protein remaining %≤ 100%)	B (80%< substrate protein remaining %≤ 100%)
Cc1csc2ncnc(C3=CCN(Cc4ccc5c(c4)CN(N4CCC(=O)NC4=O)C5=O)CC3)c12 [GT-08117, 1-(5-((4-(5-methylthieno[2,3-d]pyrimidin-4-yl)-3,6-dihydropyridin-1(2H)-yl)methyl)-1-oxoisoindolin-2-yl)dihydropyrimidine-2,4(1H,3H)-dione]	20 to 40	20 to 40			18 to 25	18 to 25	B (80%< substrate protein remaining %≤ 100%)	B (80%< substrate protein remaining %≤ 100%)	A (0% ≤ substrate protein remaining % ≤ 80%)	A (0% ≤ substrate protein remaining % ≤ 80%)	A (0% ≤ substrate protein remaining % ≤ 80%)	B (80%< substrate protein remaining %≤ 100%)
NCc1ccc2c(c1)CN(N1CCC(=O)NC1=O)C2=O [GT-08118, 1-(5-(aminomethyl)-1-oxoisoindolin-2-yl)dihydropyrimidine-2,4(1H,3H)-dione]	20 to 40	20 to 40	40 to 60	40 to 60	18 to 25	25 to 40						
O=C1CCN(N2C(=O)c3ccc(CN4CCN(c5nccc(Cl)c5F)CC4)cc3C2=O)C(=O)N1 [GT-08190, 5-((4-(4-chloro-3-fluoropyridin-2-yl)piperazin-1-yl)methyl)-2-(2,4-dioxotetrahydropyrimidin-1(2H)-yl)isoindoline-1,3-dione]	20 to 40	20 to 40			18 to 25	10 to 15						
